For data set [1] the following is noted: FA perfused as a free pure compound in the rat intestine; cited from earlier work.
Data set [2] has as its system LOX. The settings on record: different concentration than in the presented study; cited from earlier work.
Data set [3] addresses T1, soybean lipoxygenase type 1-B (LOX) (Glycine max, UniProt P08170).
T1 construct: purchased Sigma-Aldrich Company (Poznan, Poland)
T1 sequence (P08170 1-839): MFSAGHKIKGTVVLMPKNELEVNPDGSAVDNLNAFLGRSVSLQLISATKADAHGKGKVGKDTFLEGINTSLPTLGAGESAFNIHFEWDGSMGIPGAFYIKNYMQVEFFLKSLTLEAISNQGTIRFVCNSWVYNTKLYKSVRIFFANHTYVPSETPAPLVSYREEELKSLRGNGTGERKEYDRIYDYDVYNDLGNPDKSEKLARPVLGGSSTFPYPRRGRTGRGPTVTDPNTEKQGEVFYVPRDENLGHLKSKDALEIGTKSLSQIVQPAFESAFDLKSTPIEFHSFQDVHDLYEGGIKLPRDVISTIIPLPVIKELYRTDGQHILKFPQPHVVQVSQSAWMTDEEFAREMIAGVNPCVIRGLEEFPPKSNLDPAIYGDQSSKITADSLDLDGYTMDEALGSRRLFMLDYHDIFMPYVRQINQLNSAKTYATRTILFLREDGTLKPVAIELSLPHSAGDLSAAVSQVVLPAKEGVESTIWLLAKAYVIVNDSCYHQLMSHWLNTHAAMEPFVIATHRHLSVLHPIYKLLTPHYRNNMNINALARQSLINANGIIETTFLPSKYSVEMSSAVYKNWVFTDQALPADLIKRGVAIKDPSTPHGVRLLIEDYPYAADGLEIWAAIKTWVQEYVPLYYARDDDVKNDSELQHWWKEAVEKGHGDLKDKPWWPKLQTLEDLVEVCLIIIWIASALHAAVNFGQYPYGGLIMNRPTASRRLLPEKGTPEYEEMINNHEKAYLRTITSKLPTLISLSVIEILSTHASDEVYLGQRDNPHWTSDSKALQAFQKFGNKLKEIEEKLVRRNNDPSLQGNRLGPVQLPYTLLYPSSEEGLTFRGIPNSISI
The data set can be described thus: Inhibition of lipoxygenase activity (LOXI) with linoleic acid as substrate. The data set is classed as biochemical. To be noted: for Mode of Inhibition: Lineweaver-Burk, linoleic acid substrate. The protocol: Measurement was made at a wavelength of 234 nm. One unit of LOX activity was defined as an increase in absorbance of 0.001 per minute at 234 nm. All measurements were performed in four replicates.

A short description of data set [4]: ABTS radical scavenging assay. To be noted: 15 min incubation at room temperature, n = 9; read-out: IC50 ABTS radical scavenging ability. The protocol: ABTS radical scavenging activity was determined according to Re et al. with slight modifications using a microplate spectrophotometer (BioTek, Model Epoch2TC, Winooski, VT, USA) after 15 min of incubation at room temperature.

On the set-up of data set [5]: method as in PMID 10730826. The settings on record: humans, FA in its free form, for example from beer; cited from earlier work.
Data set [6] deals with LOX. On the set-up: method as in doi:10.3390/app9030568. To be noted: previous studies; cited from earlier work.
Another data set concerns the target T2, thyroid peroxidase (TPO) (Sus scrofa, UniProt P09933).
T2 construct: The frozen thyroid gland was minced with a fork; from tissue; host or cells: porcine thyroid gland (homogenate, centrifuged, salted out to 60%)
T2 sequence (P09933 15-926): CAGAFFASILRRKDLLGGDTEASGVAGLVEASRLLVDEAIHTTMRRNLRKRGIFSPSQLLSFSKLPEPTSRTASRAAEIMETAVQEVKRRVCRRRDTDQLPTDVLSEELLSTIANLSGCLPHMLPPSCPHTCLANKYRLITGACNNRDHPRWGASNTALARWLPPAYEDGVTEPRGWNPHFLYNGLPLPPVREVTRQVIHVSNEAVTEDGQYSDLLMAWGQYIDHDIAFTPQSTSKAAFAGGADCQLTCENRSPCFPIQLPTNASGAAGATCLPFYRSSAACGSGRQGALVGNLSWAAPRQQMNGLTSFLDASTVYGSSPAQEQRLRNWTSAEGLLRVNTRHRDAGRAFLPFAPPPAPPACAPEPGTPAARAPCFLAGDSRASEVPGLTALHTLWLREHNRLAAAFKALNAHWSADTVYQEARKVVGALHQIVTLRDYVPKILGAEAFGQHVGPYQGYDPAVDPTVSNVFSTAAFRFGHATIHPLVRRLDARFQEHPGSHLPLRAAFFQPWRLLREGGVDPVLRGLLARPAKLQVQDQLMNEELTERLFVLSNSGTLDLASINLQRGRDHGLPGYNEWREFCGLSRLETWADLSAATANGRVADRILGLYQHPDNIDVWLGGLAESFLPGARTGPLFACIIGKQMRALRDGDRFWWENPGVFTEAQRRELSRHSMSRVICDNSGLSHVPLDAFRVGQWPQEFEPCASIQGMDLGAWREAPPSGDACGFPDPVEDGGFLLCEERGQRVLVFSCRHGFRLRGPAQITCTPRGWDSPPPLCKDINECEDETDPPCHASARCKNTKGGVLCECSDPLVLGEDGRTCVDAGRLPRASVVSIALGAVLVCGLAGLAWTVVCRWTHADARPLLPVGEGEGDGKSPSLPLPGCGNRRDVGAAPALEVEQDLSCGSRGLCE
Nature of the data set: TPO assay (guaiacol oxidation, activation kinetics). The data set is classed as biochemical, Porcine. To be noted: n = 9, read-out: AC50 (concentration resulting in 50% activation). The procedure:
(§1) The assay was prepared according to Jomaa et al., with some modifications. Porcine thyroid glands were purchased at a slaughterhouse (Lublin, Poland) and stored at −20 °C until used. The frozen thyroid gland was minced with a fork. The mince was suspended in a buffer containing 0.25 M sucrose, 2 mM tris–HCl, 100 mM KCl, 40 mM NaCl and 10 mM MgCl2 (pH 7.4) and homogenized using Philips homogenizer. The thyroid gland was centrifuged two times at 4000 RPM per 15 min at a temperature + 4 °C. The enzyme protein was then salted out to 60%. The supernatant was stored at − 20 °C until used.
(§2) The assay was used according to Jomaa et al., with some modification. The measurement was made using a plate spectrophotometer (BioTek, Model Epoch2TC, Winooski, VT, USA) in 96–well plates at a wavelength of 470 nm. Absorbance readings were recorded every minute for a total of 3 min at 37 °C. TPO activity is expressed as a change of absorption per minute. All measurements were performed in three replicates. The AC50 (activator concentration) values were calculated at fitted models as the concentration of the tested compound providing 50% of the activation based on a dose-dependent mode of action.

For data set [7] the following is noted: blood samples of rabbits; cited from earlier work.
Details of data set [8]: method as in earlier work. To be noted: cited from earlier work.
Substrate in data set [9]: COc1ccccc1O
Nature of the data set: TPO assay (guaiacol oxidation, activation kinetics). The data set is classed as biochemical, Porcine. To be noted: other: TPO substrate guaiacol, n = 9; pH 7.4. The protocol: as §1, §2

On to `COc1cc(/C=C/C(=O)O)ccc1O` [Ferulic acid, ferulic acid], for which, in [1], the Bioavailability result was “about 50%”. Further, the LOX inhibition with LOX [2] is 74.4%. Besides, in data set [3], half-maximal inhibition (IC50) was put at 27 ± 1.3 µM, the Ki came to 8 ± 0.4 µM and the “Mode of Inhibition” value is given as “uncompetitive”. The IC50 in data set [4] is 410 ± 20 µM. Further, the Urinary excretion in data set [5] is reported as 19–98%. In addition, the “Mode of LOX inhibition” value in the data set on LOX [6] was “competitive”. The AC50 at thyroid peroxidase (TPO) was 390 ± 19 µM.
Consider `CCCCC/C=C\C/C=C\CCCCCCCC(=O)O` [Linoleic acid, reference compound], for which the Km in data set [3] (LOX substrate linoleic acid, read-out: Km without Inhibitor) was found to be 7 ± 0.3 µM.
Take `COc1cc(C(=O)O)cc(OC)c1O` [Syringic acid, syringic acid]: in [3], the IC50 turned out to be 9 ± 0.4 µM, the Ki is 5 ± 0.3 µM and the “Mode of Inhibition” value was “uncompetitive”. In addition, in data set [4], the IC50 was determined as 220 ± 11 µM. Further, the AC50 on thyroid peroxidase (TPO) was 690 ± 34 µM. In data set [7], the Absolute bioavailability is on record as 86.27%.
For the molecule `O=C(O)/C=C/c1ccccc1` [trans–cinnamic acid, trans-cinnamic acid], the LOX inhibition with LOX [2] is 66.6%. In data set [3], the IC50 amounted to 9 ± 0.4 µM, the Ki was found to be 9 ± 0.4 µM and the “Mode of Inhibition” value is “uncompetitive”. In addition, the IC50 in data set [4] came to 2120 ± 106 µM. The AC50 at thyroid peroxidase (TPO) was 100 ± 5 µM. Further, the Oral bioavailability result in [8] was “low”.

B1: thyroid peroxidase (TPO) (Sus scrofa) (protein)
chain: T2 sequence (P09933 15-926)
notes: The frozen thyroid gland was minced with a fork; from tissue; host or cells: porcine thyroid gland (homogenate, centrifuged, salted out to 60%)
As to B1, the Km in data set [9] is 0.06 ± 0.003 mM.

The values above are taken from PMC8151655, “Some Dietary Phenolic Compounds Can Activate Thyroid Peroxidase and Inhibit Lipoxygenase-Preliminary Study in the Model Systems” (International Journal of Molecular Sciences, 2021).
